Laboratory results published in patent US20190030023A1, “METHODS FOR TREATING CANCER” (X4 Pharmaceuticals, Inc., priority 2016, published 2019).
Converted amounts (≈) assume the structure as drawn.

Columns and labels:
[1] = system: unresectable or metastatic melanoma; settings: Phase 3 trial, P<0.001 pembrolizumab vs ipilimumab; cited from earlier work
[2] = Solubility of X4P-001 by pH and in water; type: physicochemical; settings: for solubility: aqueous buffer
in vivo = settings: terminal half-life
Procedure: In certain embodiments, the dosage composition may be provided twice a day in divided dosage, approximately 12 hours apart. In other embodiments, the dosage composition may be provided once daily. […] Dosage for oral administration may be from about 100 mg to about 1200 mg once or twice per day.

[3] = system: murine models of melanoma, renal cell carcinoma, and ovarian cancer; settings: cited from earlier work
[4] = system: circulating white blood cells (WBCs); settings: Phase 1 and 2a trials, oral administration; cited from earlier work
[5] = Phase 1 and 2a trials; suggests high tissue penetrance; cited from earlier work
[6] = system: pancreatic adenocarcinoma; settings: cited from earlier work

Pembrolizumab: humanized IgG4 kappa monoclonal antibody that blocks the interaction between PD-1 and its ligands, PD-L1 and PD-L2
objective response rate [1]: 33%

NCCCCN(Cc1nc2ccccc2[nH]1)[C@H]1CCCc2cccnc21 [X4P-001]
solubility ([2]; pH 9.0 (sparingly soluble)): 10.7 mg/mL (≈ 30.6 mM) | solubility ([2]; pH 10.0 (slightly soluble)): 2 mg/mL (≈ 5.72 mM) | solubility ([2]; pH range 3.0 to 8.0 (freely soluble)): > 100 mg/mL | solubility in water ([2]; water): only slightly soluble | half-life (in vivo; approximate value): ~14.5 h | half-life (in vivo; range): 12 to 24 h | anti-tumor activity, including decreased metastasis and increased overall survival [3]: significant anti-tumor activity | pharmacodynamic activity: changes in circulating white blood cells (WBCs) [4]: dose- and concentration-related changes | volume of distribution (VL) [5]: high

ipilimumab: anti-CTLA-4 antibody
objective response rate [1]: 12%

c1cc(CN2CCCNCCNCCCNCC2)ccc1CN1CCCNCCNCCCNCC1 [Plerixafor]
T-cell accumulation among the cancer cells ([6]; CXCR4 antagonist alone): induced rapid T-cell accumulation | tumor growth ([6]; in combination with anti-PD-L1): synergistically decreased tumor growth | anti-tumor activity, including decreased metastasis and increased overall survival [3]: significant anti-tumor activity
